Measurements published in US12208143B2, “Compositions and methods for transport across the blood brain barrier” (OPHIDION INC., priority 2011, dated 2025).
“Also recorded” adds a separate entry of the source. Read-outs that look alike come from different tables or passages of the source.

Key:
lynx1 mRNA [1] = test: Knock-down of lynx1 mRNA after delivery of anti-lynx1 siRNA into cultured cortical neurons via peptide variant-siRNA complexes (qPCR); type: cell-based, mouse
primary cortical neurons = type: cell-based, mouse
lynx1 mRNA [2] = test: lynx1 knock-down by lynx1 siRNA species in cultured cortical neurons (TaqMan qPCR); type: cell-based, mouse; settings: siRNA transfected by Accell method, lynx1 mRNA relative to mock, FIG. 6
lynx1 mRNA [3] = test: siRNA uptake of peptide-lynx1 siRNA complexes into primary neuronal cultures (lynx1 mRNA knock-down, qPCR); type: cell-based; settings: 25 uM peptide + 2.5 uM lynx1 siRNA (siRNA1), poly-D arginine linker, 24 hours, primary cortical mouse neurons, FIG. 8

MTTRTYATPYRMKVRKS [Mutant 2]
knock-down of lynx1 mRNA relative to the lynx1-loop2 peptide-siRNA complex (lynx1 mRNA [1]): significantly reduces lynx1-loop2 peptide ability to transport siRNA into neurons; also recorded: not as effective for decreasing lynx1 expression

EVMEQSAGIMYRKS [lynx2-loop2]
binding of biotinylated peptide to neurons in culture (primary cortical neurons): did not reliably bind to neurons

GCACUGAUUUGAUAGAAUU (siRNA; purchased Accell siRNA, chemistry not given here) [siRNA1, SMART pool siRNA A-062811-13 LYNX1, Thermo Scientific/Dharmacon]
reduction of lynx1 expression (lynx1 mRNA [2]): more than 90% | knock-down of lynx1 mRNA relative to the lynx1-loop2 peptide-siRNA complex (lynx1 mRNA [1]; 5 μM peptide + 0.5 μM anti-lynx1 siRNA, 24 hours, cultured cortical neurons, lynx1-loop2 set to 100%, siRNA alone set at 0%, FIG. 10): did not result in knock-down of lynx1 mRNA | reduction in lynx1 mRNA compared to no siRNA (Mock) (lynx1 mRNA [3]): no significant reduction in lynx1 mRNA levels

MTWCDYFTPSRGKVRKS [Mutant 1]
decrease of lynx1 mRNA compared to RVG29 and RVG19 complexes (lynx1 mRNA [1]): more effective at decreasing levels of lynx1 mRNA compared to RVG29 and RVG19; also recorded: decrease lynx1 mRNA in cultured cortical neurons more effectively than both RVG29 and RVG19 | knock-down of lynx1 mRNA relative to the lynx1-loop2 peptide-siRNA complex (lynx1 mRNA [1]): as capable of translocating siRNA into neurons as is lynx1-loop2; also recorded: enhanced the knock-down compared to SEQ ID NO:2 peptide; also recorded: capable of decreasing lynx1 expression in cultured cortical neurons as well as a peptide having the sequence of SEQ ID NO:2

MTTRTYFTPYAMADRKS [Mutant 3]
knock-down of lynx1 mRNA relative to the lynx1-loop2 peptide-siRNA complex (lynx1 mRNA [1]): abolish lynx1-loop2 peptide function; also recorded: not as effective for decreasing lynx1 expression
